The source made the active and inactive calls. No cut-off for these calls is given here.

For the first data set, the system named is SH-SY5Y. Nature of the data set: Neuroprotective activity against TBHP-induced oxidative damage in human SH-SY5Y cells assessed as increase in cell viability at 10 uM pretreated for 24 hrs followed by TBHP stimulation measured after 4 hrs by MTT assay relative to control. Format: functional, cell-based.
Conditions: not given
A general note: Tetrazolium dyes change colour on reduction, which living cells bring about.
With `CS(=O)(=O)[O-].O=C(/C=C/c1cc(O)c(O)c(O)c1)NCCCCCCCCCC[P+](c1ccccc1)(c1ccccc1)c1ccccc1`, the result was inactive.
Turning to `O=C(NCCCCCCCCCC[P+](c1ccccc1)(c1ccccc1)c1ccccc1)c1cc(O)c(O)c(O)c1`, the outcome was inactive.
Turning to `O=C(NCCCCCC[P+](c1ccccc1)(c1ccccc1)c1ccccc1)c1ccc(O)c(O)c1`, the outcome was inactive.

System in a further data set: not listed separately
In words: Cytotoxicity against human SH-SY5Y cells assessed as cell metabolic activity at 50 uM incubated for 24 hrs by MTT assay relative to control. Format: ADME, cell-based. As to conditions: read-out: Activity.
For the compound `CS(=O)(=O)[O-].O=C(/C=C/c1cc(O)c(O)c(O)c1)NCCCCCCCCCC[P+](c1ccccc1)(c1ccccc1)c1ccccc1`, the viability at 24 h, 50 µM stood at 101%.
The same measure, in the same setting: to `O=C(NCCCCCCCCCC[P+](c1ccccc1)(c1ccccc1)c1ccccc1)c1cc(O)c(O)c(O)c1` belongs 101%; to `O=C(NCCCCCC[P+](c1ccccc1)(c1ccccc1)c1ccccc1)c1ccc(O)c(O)c1`, 96.9%.

System in the next data set: not listed separately
In words: Cytotoxicity against human HepG2 cells assessed as cell metabolic activity at 10 uM incubated for 48 hrs by resazurin assay relative to control. As to conditions: read-out: Activity. Format: ADME, cell-based.
`CS(=O)(=O)[O-].O=C(/C=C/c1cc(O)c(O)c(O)c1)NCCCCCCCCCC[P+](c1ccccc1)(c1ccccc1)c1ccccc1`: the viability at 48 h, 10 µM turned out to be 105%.
The same measure, in the same setting: to `O=C(NCCCCCCCCCC[P+](c1ccccc1)(c1ccccc1)c1ccccc1)c1cc(O)c(O)c(O)c1` belongs 108%; to `O=C(NCCCCCC[P+](c1ccccc1)(c1ccccc1)c1ccccc1)c1ccc(O)c(O)c1`, 97.4%.

System in another data set: not listed separately
Nature of the data set: Antioxidant activity assessed as DPPH radical scavenging activity measured after 45 mins by UV-Visible spectrophotometric based assay. The class given is functional.
Conditions: not given
In general terms: Loss of DPPH colour is used to gauge radical scavenging.
As usually defined, the IC50 is the concentration that gives 50% inhibition. For `CS(=O)(=O)[O-].O=C(/C=C/c1cc(O)c(O)c(O)c1)NCCCCCCCCCC[P+](c1ccccc1)(c1ccccc1)c1ccccc1`, the IC50 was found to be 13.7 µM.
Still for that read-out and setting: the result for `O=C(NCCCCCCCCCC[P+](c1ccccc1)(c1ccccc1)c1ccccc1)c1cc(O)c(O)c(O)c1` reads 10.2 µM.
In the case of `O=C(NCCCCCC[P+](c1ccccc1)(c1ccccc1)c1ccccc1)c1ccc(O)c(O)c1`, the half-maximal inhibitory concentration (IC50) was found to be 31 µM.

System in the next data set: not listed separately
Nature of the data set: Antioxidant activity assessed as ABTS radical scavenging activity measured after 15 mins by UV-Visible spectrophotometric based assay. The class given is functional.
Conditions: not given
With `CS(=O)(=O)[O-].O=C(/C=C/c1cc(O)c(O)c(O)c1)NCCCCCCCCCC[P+](c1ccccc1)(c1ccccc1)c1ccccc1`, the half-maximal inhibitory concentration (IC50) came out at 7.5 µM.
Same read-out and setting: the result for `O=C(NCCCCCCCCCC[P+](c1ccccc1)(c1ccccc1)c1ccccc1)c1cc(O)c(O)c(O)c1` reads 7.4 µM.
`O=C(NCCCCCC[P+](c1ccccc1)(c1ccccc1)c1ccccc1)c1ccc(O)c(O)c1`: the IC50 came out at 20.7 µM.

System in the next data set: not listed separately
Nature of the data set: Electrochemical behavior of the compound assessed as redox potential corrected toward saturated Ag/AgCl reference electrode by cyclic voltammetry.
Conditions: not given
Consider `CS(=O)(=O)[O-].O=C(/C=C/c1cc(O)c(O)c(O)c1)NCCCCCCCCCC[P+](c1ccccc1)(c1ccccc1)c1ccccc1`, for which the Activity came to 57 mV.
On to `O=C(NCCCCCCCCCC[P+](c1ccccc1)(c1ccccc1)c1ccccc1)c1cc(O)c(O)c(O)c1`, for which the Activity stood at 114 mV.
For the compound `O=C(NCCCCCC[P+](c1ccccc1)(c1ccccc1)c1ccccc1)c1ccc(O)c(O)c1`, the Activity is 219 mV.

System in the next data set: not listed separately
In words: Electrochemical behavior of the compound assessed as redox potential corrected toward saturated Ag/AgCl reference electrode by differential pulse voltammetry.
Conditions: not given
For the compound `CS(=O)(=O)[O-].O=C(/C=C/c1cc(O)c(O)c(O)c1)NCCCCCCCCCC[P+](c1ccccc1)(c1ccccc1)c1ccccc1`, the Activity came to 741 mV.
Turning to `O=C(NCCCCCCCCCC[P+](c1ccccc1)(c1ccccc1)c1ccccc1)c1cc(O)c(O)c(O)c1`, the Activity turned out to be 725 mV.
Same read-out and setting: the result for `O=C(NCCCCCC[P+](c1ccccc1)(c1ccccc1)c1ccccc1)c1ccc(O)c(O)c1` reads 219 mV.

System in a further data set: not listed separately
In words: Metal chelating activity assessed as compound-Fe2+ complex formation at 100 uM incubated for 10 mins by ferrozine spectrophotometric assay.
Conditions: not given
As to `CS(=O)(=O)[O-].O=C(/C=C/c1cc(O)c(O)c(O)c1)NCCCCCCCCCC[P+](c1ccccc1)(c1ccccc1)c1ccccc1`, the Activity was greater than 80%.
For the compound `O=C(NCCCCCCCCCC[P+](c1ccccc1)(c1ccccc1)c1ccccc1)c1cc(O)c(O)c(O)c1`, the Activity was greater than 80%.
Same read-out and setting: to `O=C(NCCCCCC[P+](c1ccccc1)(c1ccccc1)c1ccccc1)c1ccc(O)c(O)c1` belongs greater than 80%.

System in another data set: not listed separately
In words: Cytotoxicity against human SH-SY5Y cells assessed as cell metabolic activity at 10 uM incubated for 24 hrs by MTT assay relative to control. Format: ADME, cell-based. As to conditions: read-out: Activity.
`CS(=O)(=O)[O-].O=C(/C=C/c1cc(O)c(O)c(O)c1)NCCCCCCCCCC[P+](c1ccccc1)(c1ccccc1)c1ccccc1`: the viability at 24 h, 10 µM amounted to 99%.
For `O=C(NCCCCCCCCCC[P+](c1ccccc1)(c1ccccc1)c1ccccc1)c1cc(O)c(O)c(O)c1`, the viability at 24 h, 10 µM amounted to 107%.
Turning to `O=C(NCCCCCC[P+](c1ccccc1)(c1ccccc1)c1ccccc1)c1ccc(O)c(O)c1`, the viability at 24 h, 10 µM is 102%.

System in a further data set: not listed separately
In words: Cytotoxicity against human HepG2 cells assessed as cell metabolic activity at 50 uM incubated for 48 hrs by resazurin assay relative to control. Format: ADME, cell-based. As to conditions: read-out: Activity. A general note: The colour change of resazurin is a common sign of viable cells or microbes.
For `CS(=O)(=O)[O-].O=C(/C=C/c1cc(O)c(O)c(O)c1)NCCCCCCCCCC[P+](c1ccccc1)(c1ccccc1)c1ccccc1`, the viability at 48 h, 50 µM came to 108%.
The same measure, in the same setting: the result for `O=C(NCCCCCCCCCC[P+](c1ccccc1)(c1ccccc1)c1ccccc1)c1cc(O)c(O)c(O)c1` reads 108%.
Still for that read-out and setting: the result for `O=C(NCCCCCC[P+](c1ccccc1)(c1ccccc1)c1ccccc1)c1ccc(O)c(O)c1` reads 90.3%.

A further data set concerns SH-SY5Y. Nature of the data set: Induction of ROS generation in human SH-SY5Y cells at 50 uM incubated for 24 hrs by DCFH-DA probe based fluorescence assay relative to control.
Conditions: not given
The class given is functional.
For `CS(=O)(=O)[O-].O=C(/C=C/c1cc(O)c(O)c(O)c1)NCCCCCCCCCC[P+](c1ccccc1)(c1ccccc1)c1ccccc1`, the outcome was Active.
For `O=C(NCCCCCCCCCC[P+](c1ccccc1)(c1ccccc1)c1ccccc1)c1cc(O)c(O)c(O)c1`, the outcome was Active.

A further data set deals with SH-SY5Y. In words: Neuroprotective activity against 6-OHDA-induced toxicity in human SH-SY5Y cells assessed as reduction in cell damage at 10 to 50 uM pretreated for 24 hrs followed by 6-OHDA challenge and measured after 24 hrs by MTT assay relative to control.
Conditions: not given
The class given is functional.
For the compound `CS(=O)(=O)[O-].O=C(/C=C/c1cc(O)c(O)c(O)c1)NCCCCCCCCCC[P+](c1ccccc1)(c1ccccc1)c1ccccc1`, the outcome was inactive.
Take `O=C(NCCCCCCCCCC[P+](c1ccccc1)(c1ccccc1)c1ccccc1)c1cc(O)c(O)c(O)c1`: the result was inactive.
As to `O=C(NCCCCCC[P+](c1ccccc1)(c1ccccc1)c1ccccc1)c1ccc(O)c(O)c1`, the result was inactive.

Another data set deals with SH-SY5Y. Nature of the data set: Neuroprotective activity against H2O2-induced oxidative damage in human SH-SY5Y cells assessed as reduction in cell damage at 10 uM pretreated for 24 hrs followed by H2O2 challenge measured after 30 mins by MTT assay relative to control. The arrangement: scale not given: the % may be the effect or the level left.
Conditions: not given
The class given is functional.
`CS(=O)(=O)[O-].O=C(/C=C/c1cc(O)c(O)c(O)c1)NCCCCCCCCCC[P+](c1ccccc1)(c1ccccc1)c1ccccc1`: the Activity was 70.8 - 83.3%.
The same measure, in the same setting: the result for `O=C(NCCCCCCCCCC[P+](c1ccccc1)(c1ccccc1)c1ccccc1)c1cc(O)c(O)c(O)c1` reads 70.8 - 83.3%; that for `O=C(NCCCCCC[P+](c1ccccc1)(c1ccccc1)c1ccccc1)c1ccc(O)c(O)c1`, “inactive”.

Another data set has as its system SH-SY5Y. In words: Neuroprotective activity against H2O2-induced oxidative damage in human SH-SY5Y cells assessed as reduction in cell damage at 50 uM pretreated for 24 hrs followed by H2O2 challenge measured after 30 mins by MTT assay relative to control.
Conditions: not given
The arrangement: scale not given: the % may be the effect or the level left. The class given is functional.
For `CS(=O)(=O)[O-].O=C(/C=C/c1cc(O)c(O)c(O)c1)NCCCCCCCCCC[P+](c1ccccc1)(c1ccccc1)c1ccccc1`, the Activity is given as 70.8 - 83.3%.
Still for that read-out and setting: the result for `O=C(NCCCCCCCCCC[P+](c1ccccc1)(c1ccccc1)c1ccccc1)c1cc(O)c(O)c(O)c1` reads 70.8 - 83.3%.

Another data set relates to SH-SY5Y. In words: Neuroprotective activity against TBHP-induced oxidative damage in human SH-SY5Y cells assessed as increase in cell viability at 50 uM pretreated for 24 hrs followed by TBHP stimulation measured after 4 hrs by MTT assay relative to control. Format: functional.
Conditions: not given
As for `CS(=O)(=O)[O-].O=C(/C=C/c1cc(O)c(O)c(O)c1)NCCCCCCCCCC[P+](c1ccccc1)(c1ccccc1)c1ccccc1`, the result was inactive.
On the same count and under the same terms, to `O=C(NCCCCCCCCCC[P+](c1ccccc1)(c1ccccc1)c1ccccc1)c1cc(O)c(O)c(O)c1` belongs “inactive”; to `O=C(NCCCCCC[P+](c1ccccc1)(c1ccccc1)c1ccccc1)c1ccc(O)c(O)c1`, “inactive”.

Source of the values: ChEMBL document CHEMBL4390649, “Fine-tuning the neuroprotective and blood-brain barrier permeability profile of multi-target agents designed to prevent progressive mitochondrial dysfunction” (Eur J Med Chem, 2019).
